Measured values taken from US8629112B2, “Template-fixed peptidomimetics with CXCR7 modulating activity” (priority 2010, dated 2014).
Square brackets hold non-standard residues; d marks the D form. Peptide text beside a SMILES is read from it. * marks the point of attachment. Oic = O=C(O)[C@@H]1C[C@@H]2CCCC[C@@H]2N1; 1Nal = N[C@@H](Cc1cccc2ccccc12)C(=O)O; 2Nal = N[C@@H](Cc1ccc2ccccc2c1)C(=O)O; d1Nal = N[C@H](Cc1cccc2ccccc12)C(=O)O; Tiq1c(1S) = O=C(O)[C@H]1NCCc2ccccc21; His(π-Me) = Cn1cncc1C[C@H](N)C(=O)O; cisHyp = O=C(O)[C@@H]1C[C@H](O)CN1; Tic = O=C(O)[C@@H]1Cc2ccccc2CN1; dOrn = NCCC[C@@H](N)C(=O)O; dPip = O=C(O)[C@H]1CCCCN1; Aze = O=C(O)[C@@H]1CCN1; Bn = c1ccc(C*)cc1

Target: T1, CXCR7 (Homo sapiens, UniProt P25106)
T1 construct: host or cells: CHO (PathHunter CHO-CXCR7 β-arrestin cells)
T1 sequence (P25106 whole entry): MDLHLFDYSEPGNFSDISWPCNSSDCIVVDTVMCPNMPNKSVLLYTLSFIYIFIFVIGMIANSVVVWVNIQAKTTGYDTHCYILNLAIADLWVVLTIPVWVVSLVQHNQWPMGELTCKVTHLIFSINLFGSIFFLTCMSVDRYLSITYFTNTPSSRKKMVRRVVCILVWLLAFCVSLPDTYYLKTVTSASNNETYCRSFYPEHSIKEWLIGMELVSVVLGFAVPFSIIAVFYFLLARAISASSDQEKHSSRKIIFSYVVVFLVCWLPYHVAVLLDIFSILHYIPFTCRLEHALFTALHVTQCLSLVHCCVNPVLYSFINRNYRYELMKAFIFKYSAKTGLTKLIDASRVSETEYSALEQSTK
Test: CXCR7 β-arrestin recruitment assay (PathHunter CHO-CXCR7, agonistic assay)
Assay type: cell-based
Details: CHO CXCR7 β-arrestin cells, agonistic assay, 90 min at 37° C., chemiluminescence; read-out: β-Arrestin EC50
Description: Lyophilized peptides were weighed on a Microbalance (Mettler MX5) and dissolved in DMSO to a final concentration of 10 mM unless otherwise stated. Stock solutions were kept at +4° C., and protected from light.
2.2 CXCR7 β-Arrestin Recruitment Assay
The PathHunter CHO-CXCR7 (DiscoverX) assay was performed according to the manufacturer's protocol. In brief, CHO CXCR7 β-arrestin cells were seeded at a density of 5000 cells per well in 40 μl of F12 medium in a 96-half volume well black culture plate and incubated overnight at 37° C. in a humidified atmosphere with 5% CO2. The next day, serial dilutions of PEM compounds have been prepared in DMSO and subsequently diluted in HBSS buffer containing 0.1% BSA.
For agonistic assay, 10 μl of compound solution or a solution of stromal cell-derived factor-1 (SDF-1) as positive control was added to the cells with a final DMSO concentration of 1% (v/v). The plate was incubated for 90 min at 37° C. in 5% CO2 incubator with gentle shaking (300 rpm) before addition of 40 ul of detection reagent per well. Reaction was developed 90 min at room temperature in the dark with shaking, and chemiluminescence was measured with a Topcount (Perkin Elmer) luminescence counter.

Structure (SMILES)	EC50 [nM]
N=C(N)NCCC[C@@H]1NC(=O)[C@H](Cc2c[nH]cn2)NC(=O)[C@@H](Cc2c[nH]c3ccccc23)NC(=O)[C@H](Cc2c[nH]cn2)NC(=O)[C@@H]2Cc3ccccc3CN2C(=O)[C@H]2CCCN2C1=O [compound 31, cyclo(-His-^DTrp-His-Arg-^DPro-Tic-)] (cyclo(HR[dP][Tic]H[dW]))	226 ± 13.2
CC[C@H](C)[C@@H]1NC(=O)[C@H](Cc2c[nH]c3ccccc23)NC(=O)[C@@H](CCCNC(=N)N)NC(=O)[C@H](Cc2c[nH]c3ccccc23)NC(=O)[C@@H]2CCN2C(=O)[C@H]2CCCN2C1=O [compound 46, cyclo(-Trp-^DArg-Trp-Ile-^DPro-Azt-)] (cyclo([Aze]W[dR]WI[dP]))	208 ± 50.2
N=C(N)NCCC[C@H]1NC(=O)[C@H](Cc2c[nH]c3ccccc23)NC(=O)[C@@H]2Cc3ccccc3CN2C(=O)[C@H]2CCCN2C(=O)[C@H](Cc2c[nH]c3ccccc23)NC(=O)[C@H](Cc2c[nH]cn2)NC1=O [compound 38, cyclo(-Trp-^DArg-His-Trp-^DPro-Tic-)] (cyclo(HW[dP][Tic]W[dR]))	217 ± 12.5
N=C(N)NCCC[C@@H]1NC(=O)[C@H](Cc2c[nH]c3ccccc23)NC(=O)[C@@H](CCCNC(=N)N)NC(=O)[C@H](Cc2cccc3ccccc23)NC(=O)[C@@H]2CCN2C(=O)[C@H]2CCCN2C1=O [compound 44, cyclo(-1Nal-^DArg-Trp-Arg-^DPro-Azt-)] (cyclo([1Nal][dR]WR[dP][Aze]))	146 ± 81.8
CC[C@H](C)[C@@H]1NC(=O)[C@@H]2Cc3ccccc3CN2C(=O)[C@H]2CCCN2C(=O)[C@H](CCCNC(=N)N)NC(=O)[C@H](Cc2c[nH]cn2)NC(=O)[C@@H](Cc2c[nH]c3ccccc23)NC1=O [compound 34, cyclo(-Ile-^DTrp-His-Arg-^DPro-Tic-)] (cyclo(HR[dP][Tic]I[dW]))	317 ± 360
O=C1N[C@@H](Cc2ccc(O)cc2)C(=O)N2CCC[C@@H]2C(=O)N2Cc3ccccc3C[C@H]2C(=O)N[C@@H](Cc2c[nH]c3ccccc23)C(=O)N[C@H](Cc2ccccc2)C(=O)N[C@H]1Cc1c[nH]c2ccccc12 [compound 24, cyclo(-Trp-^DPhe-Trp-Tyr-^DPro-Tic-)] (cyclo([Tic]W[dF]WY[dP]))	94.5 ± 54.1
CC[C@H](C)[C@@H]1NC(=O)[C@@H](Cc2c[nH]cn2)NC(=O)[C@H](Cc2c[nH]c3ccccc23)NC(=O)[C@@H]2CCN2C(=O)[C@H]2CCCN2C(=O)[C@H](CCCNC(=N)N)NC1=O [compound 47, cyclo(-Trp-^DHis-Ile-Arg-^DPro-Azt-)] (cyclo([Aze]W[dH]IR[dP]))	344.5 ± 0.6
O=C1N[C@@H](Cc2c[nH]c3ccccc23)C(=O)N2CCC[C@@H]2C(=O)N2Cc3ccccc3C[C@H]2C(=O)N[C@@H](Cc2c[nH]cn2)C(=O)N[C@H](Cc2cccc3ccccc23)C(=O)N[C@H]1Cc1c[nH]cn1 [compound 39, cyclo(-His-^D1Nal-His-Trp-^DPro-Tic-)] (cyclo(HW[dP][Tic]H[d1Nal]))	269 ± 80.1
N=C(N)NCCC[C@@H]1NC(=O)[C@H](Cc2c[nH]c3ccccc23)NC(=O)[C@@H](CCCNC(=N)N)NC(=O)[C@H](Cc2c[nH]c3ccccc23)NC(=O)[C@@H]2Cc3ccccc3CN2C(=O)[C@H]2CCCN2C1=O [compound 13, cyclo(-Trp-^DArg-Trp-Arg-^DPro-Tic-)] (cyclo(R[dP][Tic]W[dR]W))	128 ± 32.5
N=C(N)NCCC[C@@H]1NC(=O)[C@H](Cc2c[nH]c3ccccc23)NC(=O)[C@@H](CCCN)NC(=O)[C@H](Cc2c[nH]c3ccccc23)NC(=O)[C@@H]2Cc3ccccc3CN2C(=O)[C@H]2CCCN2C1=O [compound 14, cyclo(-Trp-^DOrn-Trp-Arg-^DPro-Tic-)] (cyclo(R[dP][Tic]W[dOrn]W))	111 ± 75.4
CC[C@H](C)[C@@H]1NC(=O)[C@@H](Cc2c[nH]cn2)NC(=O)[C@H](Cc2cccc3ccccc23)NC(=O)[C@@H]2Cc3ccccc3CN2C(=O)[C@H]2CCCN2C(=O)[C@H](CCCNC(=N)N)NC1=O [compound 29, cyclo(-1Nal-^DHis-Ile-Arg-^DPro-Tic-)] (cyclo([1Nal][dH]IR[dP][Tic]))	347 ± 110
N=C(N)NCCC[C@@H]1NC(=O)[C@H](Cc2c[nH]c3ccccc23)NC(=O)[C@@H](CCCNC(=N)N)NC(=O)[C@H](Cc2c[nH]c3ccccc23)NC(=O)[C@@H]2CCN2C(=O)[C@H]2CCCN2C1=O [compound 51, cyclo(-Trp-^DArg-Trp-Arg-^DPro-Azt-)] (cyclo([Aze]W[dR]WR[dP]))	170 ± 22.5
N=C(N)NCCC[C@@H]1NC(=O)[C@@H](Cc2ccccc2)NC(=O)[C@H](Cc2c[nH]c3ccccc23)NC(=O)[C@@H]2Cc3ccccc3CN2C(=O)[C@H]2CCCN2C(=O)[C@H](CCCNC(=N)N)NC1=O [compound 19, cyclo(-Trp-^DPhe-Arg-Arg-^DPro-Tic-)] (cyclo(RR[dP][Tic]W[dF]))	178 ± 102

The next molecules have a lower EC50 than those just listed; values first:

EC50 [nM]	Structure (SMILES)
85.7 ± 76.6	CC[C@H](C)[C@@H]1NC(=O)[C@@H](Cc2c[nH]cn2)NC(=O)[C@H](Cc2cccc3ccccc23)NC(=O)[C@@H]2CCN2C(=O)[C@H]2CCCN2C(=O)[C@H](CCCNC(=N)N)NC1=O [Ex. 42, cyclo(-1Nal-^DHis-Ile-Arg-^DPro-Azt-)] (cyclo([1Nal][dH]IR[dP][Aze]))
78.7 ± 0.9	N=C(N)NCCC[C@@H]1NC(=O)[C@H](Cc2c[nH]c3ccccc23)NC(=O)[C@@H](Cc2ccccc2)NC(=O)[C@H](Cc2c[nH]c3ccccc23)NC(=O)[C@@H]2CCCN2C(=O)[C@H]2CCCCN2C1=O [compound 41, cyclo(-Trp-^DPhe-Trp-Arg-^DPip-Pro-)] (cyclo(PW[dF]WR[dPip]))
75.7 ± 41.5	N=C(N)NCCC[C@@H]1NC(=O)[C@H](Cc2ccccc2)NC(=O)[C@@H](Cc2ccccc2)NC(=O)[C@H](Cc2c[nH]c3ccccc23)NC(=O)[C@@H]2Cc3ccccc3CN2C(=O)[C@H]2CCCN2C1=O [compound 15, cyclo(-Trp-^DPhe-Phe-Arg-^DPro-Tic-)] (cyclo(FR[dP][Tic]W[dF]))
61.6 ± 1.6	N=C(N)NCCC[C@@H]1NC(=O)[C@H](Cc2c[nH]c3ccccc23)NC(=O)[C@@H](Cc2ccccc2)NC(=O)[C@H](Cc2cccc3ccccc23)NC(=O)[C@@H]2Cc3ccccc3CN2C(=O)[C@H]2CCCN2C1=O [compound 7, cyclo(-1Nal-^DPhe-Trp-Arg-^DPro-Tic-)] (cyclo([1Nal][dF]WR[dP][Tic]))
41.2 ± 8.3	CC[C@H](C)[C@@H]1NC(=O)[C@@H](CCCNC(=N)N)NC(=O)[C@H](Cc2cccc3ccccc23)NC(=O)[C@@H]2CCN2C(=O)[C@H]2CCCN2C(=O)[C@H](CCCNC(=N)N)NC1=O [compound 43, cyclo(-1Nal-^DArg-Ile-Arg-^DPro-Azt-)] (cyclo([1Nal][dR]IR[dP][Aze]))
32.5 ± 3.9	Cn1cncc1C[C@@H]1NC(=O)[C@@H]2Cc3ccccc3CN2C(=O)[C@H]2CCCN2C(=O)[C@H](CCCNC(=N)N)NC(=O)[C@H](Cc2c[nH]c3ccccc23)NC(=O)[C@@H](Cc2ccccc2)NC1=O [Ex. 4, cyclo(-His(Me)-^DPhe-Trp-Arg-^DPro-Tic-)] (cyclo([His(π-Me)][dF]WR[dP][Tic]))
32.1 ± 3.9	N=C(N)NCCC[C@@H]1NC(=O)[C@H](Cc2c[nH]c3ccccc23)NC(=O)[C@@H](Cc2ccccc2)NC(=O)[C@H](Cc2c[nH]cn2)NC(=O)[C@@H]2Cc3ccccc3CN2C(=O)[C@H]2CCCN2C1=O [compound 3, cyclo(-His-^DPhe-Trp-Arg-^DPro-Tic-)] (cyclo(H[dF]WR[dP][Tic]))
22.5 ± 13.7	N=C(N)NCCC[C@@H]1NC(=O)[C@H](Cc2c[nH]c3ccccc23)NC(=O)[C@@H](Cc2ccccc2)NC(=O)[C@H](Cc2ccccc2)NC(=O)[C@@H]2Cc3ccccc3CN2C(=O)[C@H]2CCCN2C1=O [Ex. 2, cyclo(-Phe-^DPhe-Trp-Arg-^DPro-Tic-)] (cyclo(F[dF]WR[dP][Tic]))
16.9 ± 7.3	N=C(N)NCCC[C@@H]1NC(=O)[C@H](Cc2ccc3ccccc3c2)NC(=O)[C@@H](Cc2ccccc2)NC(=O)[C@H](Cc2c[nH]c3ccccc23)NC(=O)[C@@H]2Cc3ccccc3CN2C(=O)[C@H]2CCCN2C1=O [compound 17, cyclo(-Trp-^DPhe-2Nal-Arg-^DPro-Tic-)] (cyclo([2Nal]R[dP][Tic]W[dF]))
8.9 ± 5.8	N=C(N)NCCC[C@@H]1NC(=O)[C@H](Cc2c[nH]c3ccccc23)NC(=O)[C@@H](Cc2ccccc2)NC(=O)[C@H](Cc2ccc3ccccc3c2)NC(=O)[C@@H]2Cc3ccccc3CN2C(=O)[C@H]2CCCN2C1=O [compound 8, cyclo(-2Nal-^DPhe-Trp-Arg-^DPro-Tic-)] (cyclo([2Nal][dF]WR[dP][Tic]))
1.7 ± 1.1	N=C(N)NCCC[C@@H]1NC(=O)[C@H](Cc2c[nH]c3ccccc23)NC(=O)[C@@H](Cc2ccccc2)NC(=O)[C@H](Cc2c[nH]c3ccccc23)NC(=O)[C@@H]2C[C@H](OCc3ccccc3)CN2C(=O)[C@H]2CCCN2C1=O [Ex. 27, cyclo(-Trp-^DPhe-Trp-Arg-^DPro-(4S)-Hyp(Bn)-)] (cyclo(R[dP][cisHyp](Bn)W[dF]W))
0.8 ± 0.5	N=C(N)NCCC[C@@H]1NC(=O)[C@H](Cc2c[nH]c3ccccc23)NC(=O)[C@@H](Cc2ccccc2)NC(=O)[C@H](Cc2c[nH]c3ccccc23)NC(=O)[C@@H]2C[C@@H]3CCCC[C@@H]3N2C(=O)[C@H]2CCCN2C1=O [Ex. 26, cyclo(-Trp-^DPhe-Trp-Arg-^DPro-Oic-)] (cyclo([Oic]W[dF]WR[dP]))
0.4	N=C(N)NCCC[C@@H]1NC(=O)[C@H](Cc2c[nH]c3ccccc23)NC(=O)[C@@H](Cc2ccccc2)NC(=O)[C@H](Cc2c[nH]c3ccccc23)NC(=O)[C@@H]2c3ccccc3CCN2C(=O)[C@H]2CCCN2C1=O [Ex. 25, cyclo(-Trp-^DPhe-Trp-Arg-^DPro-Tiq-)] (cyclo(R[dP][Tiq1c(1S)]W[dF]W))
